Reference: paper PMC4106133 (Journal of medicinal chemistry, 2013)

How the values were obtained:
[1] = biological target: T1, α4β2 nAChR (Rattus norvegicus, UniProt P09483+P12390); assay: nAChR functional assay, membrane potential change; format: cell-based
[2] = biological target: T1, α4β2 nAChR; assay: [3H]epibatidine binding to α4β2 nAChR in cell membranes; settings: binding selectivity for α4β2 over α3β4
[3] = biological target: α3β4 nAChR (Rattus norvegicus, UniProt P04757+P12392); assay: nAChR functional assay, membrane potential change; format: cell-based
[4] = test system: α3β4α5 nAChR; assay: binding affinity against α3β4α5 nAChR

T1 sequence (P09483 31-630): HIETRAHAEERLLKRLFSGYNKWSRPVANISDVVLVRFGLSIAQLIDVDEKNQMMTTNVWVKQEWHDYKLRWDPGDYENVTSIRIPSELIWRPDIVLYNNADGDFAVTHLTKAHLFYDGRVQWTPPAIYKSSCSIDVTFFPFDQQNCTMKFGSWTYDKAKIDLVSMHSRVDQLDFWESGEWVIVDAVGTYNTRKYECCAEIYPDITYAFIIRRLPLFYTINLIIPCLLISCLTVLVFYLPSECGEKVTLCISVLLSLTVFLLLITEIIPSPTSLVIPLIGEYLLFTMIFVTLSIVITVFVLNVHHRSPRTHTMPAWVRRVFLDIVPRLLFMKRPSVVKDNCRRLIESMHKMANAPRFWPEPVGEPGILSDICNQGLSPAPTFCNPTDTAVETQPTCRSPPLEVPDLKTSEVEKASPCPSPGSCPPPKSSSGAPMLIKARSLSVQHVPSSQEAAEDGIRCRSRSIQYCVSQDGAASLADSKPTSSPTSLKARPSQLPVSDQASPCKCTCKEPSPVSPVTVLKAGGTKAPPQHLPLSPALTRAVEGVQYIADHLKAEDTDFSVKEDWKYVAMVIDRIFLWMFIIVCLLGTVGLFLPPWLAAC
T1 sequence (P12390 25-500): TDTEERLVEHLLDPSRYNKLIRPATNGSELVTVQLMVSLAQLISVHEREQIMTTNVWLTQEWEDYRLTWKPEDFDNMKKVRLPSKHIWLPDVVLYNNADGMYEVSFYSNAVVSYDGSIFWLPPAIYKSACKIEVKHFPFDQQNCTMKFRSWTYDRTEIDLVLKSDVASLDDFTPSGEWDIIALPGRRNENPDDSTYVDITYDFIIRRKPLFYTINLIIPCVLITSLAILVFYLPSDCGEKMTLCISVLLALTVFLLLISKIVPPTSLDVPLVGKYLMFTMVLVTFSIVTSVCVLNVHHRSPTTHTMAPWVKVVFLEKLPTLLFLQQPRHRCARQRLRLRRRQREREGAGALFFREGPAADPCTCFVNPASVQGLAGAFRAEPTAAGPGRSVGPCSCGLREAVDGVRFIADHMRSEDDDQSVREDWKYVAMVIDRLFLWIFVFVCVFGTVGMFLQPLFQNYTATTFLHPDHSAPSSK
Sequence of α3β4 nAChR (P04757 26-499): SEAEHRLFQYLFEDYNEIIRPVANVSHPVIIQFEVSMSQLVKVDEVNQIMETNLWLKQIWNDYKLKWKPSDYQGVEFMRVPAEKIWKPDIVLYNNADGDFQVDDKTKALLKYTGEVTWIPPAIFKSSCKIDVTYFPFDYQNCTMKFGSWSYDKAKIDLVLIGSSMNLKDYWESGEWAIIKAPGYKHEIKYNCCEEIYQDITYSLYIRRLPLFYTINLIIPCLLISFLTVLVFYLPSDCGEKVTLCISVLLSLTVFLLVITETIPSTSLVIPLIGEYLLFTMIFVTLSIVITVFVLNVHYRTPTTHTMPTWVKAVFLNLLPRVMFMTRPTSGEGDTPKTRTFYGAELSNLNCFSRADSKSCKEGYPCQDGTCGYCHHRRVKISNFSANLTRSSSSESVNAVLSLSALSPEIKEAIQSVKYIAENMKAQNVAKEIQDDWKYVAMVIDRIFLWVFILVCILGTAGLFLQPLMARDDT
Sequence of α3β4 nAChR (P12392 21-495): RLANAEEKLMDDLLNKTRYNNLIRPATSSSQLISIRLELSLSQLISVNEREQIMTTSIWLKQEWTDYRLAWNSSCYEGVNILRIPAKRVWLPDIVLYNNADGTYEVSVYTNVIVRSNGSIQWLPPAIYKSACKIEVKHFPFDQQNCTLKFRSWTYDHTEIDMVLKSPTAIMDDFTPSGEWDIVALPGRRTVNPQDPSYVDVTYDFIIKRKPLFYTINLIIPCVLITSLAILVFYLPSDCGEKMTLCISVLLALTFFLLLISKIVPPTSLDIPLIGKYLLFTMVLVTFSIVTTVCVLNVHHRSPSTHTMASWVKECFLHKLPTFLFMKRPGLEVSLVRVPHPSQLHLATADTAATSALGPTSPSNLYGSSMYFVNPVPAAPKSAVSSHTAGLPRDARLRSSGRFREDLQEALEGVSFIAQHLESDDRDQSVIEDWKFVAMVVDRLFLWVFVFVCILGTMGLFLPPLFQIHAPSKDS

For `CC(C)(C)C1CCC(CN2C(=N)N(CCCC[C@H]3CNC(=N)N3CCc3cccnc3)C[C@H]2Cc2ccccc2)CC1` (stereo partly drawn) [Compound 301, (R)-4-Benzyl-3-((4-tert-butylcyclohexyl)methyl)-1-(4-((S)-2-imino-3-(2-(pyridin-3-yl)ethyl)imidazolidin-4-yl)butyl)imidazolidin-2-imine], the “agonist activity at α4β2 nAChR” value ([1]; membrane potential change, HEK cells, up to 10 µM) was “no agonist activity”, the “mode of inhibition of nicotine's activity” value ([1]; nicotine dose response curves with various concentrations of 301) was “noncompetitive” and the inverse agonist activity ([1]; α4β2-containing cells, very high concentrations) was “potential inverse agonist activity”. For the same compound, the “selectivity (fold) (α3β4 Ki/α4β2 Ki)” value [2] was roughly 500 fold, the IC50 [3] was greater than 10 µM and the “agonist activity at α3β4 nAChR” value ([3]; membrane potential change, HEK cells) was “no agonist activity”. For the same compound, the “binding affinity Kd/Ki against α3β4α5 nAChR” value [4] was 9.062 µM.

Work on `CN1CCC[C@H]1c1cccnc1` [nicotine, reference compound] yielded an Emax ([1]; HEK293, read-out: nicotine maximum stimulation) of 100%.
